Data set [1] addresses T1, OATP-C (OATP1B1, SLCO1B1) (Homo sapiens, UniProt Q9Y6L6).
T1 sequence (Q9Y6L6 whole entry): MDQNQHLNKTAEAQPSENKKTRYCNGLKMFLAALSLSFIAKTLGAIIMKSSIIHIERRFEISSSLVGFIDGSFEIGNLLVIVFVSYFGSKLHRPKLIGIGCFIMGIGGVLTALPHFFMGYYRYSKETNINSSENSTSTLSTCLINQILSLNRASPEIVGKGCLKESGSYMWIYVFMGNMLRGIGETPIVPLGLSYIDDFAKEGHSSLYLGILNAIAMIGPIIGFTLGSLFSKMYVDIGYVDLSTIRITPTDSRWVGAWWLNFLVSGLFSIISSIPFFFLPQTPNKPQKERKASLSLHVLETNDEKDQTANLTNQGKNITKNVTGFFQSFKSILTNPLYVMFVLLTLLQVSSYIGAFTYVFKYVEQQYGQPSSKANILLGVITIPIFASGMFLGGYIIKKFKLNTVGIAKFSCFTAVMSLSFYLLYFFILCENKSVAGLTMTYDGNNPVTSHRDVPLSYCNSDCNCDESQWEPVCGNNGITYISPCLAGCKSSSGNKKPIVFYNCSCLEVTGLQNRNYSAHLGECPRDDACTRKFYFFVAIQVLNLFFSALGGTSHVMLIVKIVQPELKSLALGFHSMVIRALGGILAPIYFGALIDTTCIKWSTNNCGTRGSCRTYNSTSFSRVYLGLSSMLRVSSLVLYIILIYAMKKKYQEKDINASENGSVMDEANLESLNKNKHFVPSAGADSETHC
The data set is described as follows: TP_TRANSPORTER: inhibition of estrone-3-sulfate uptake (Estrone-3-sulfate: 9.2 nM) by Troglitazone at a concentration of 10uM in OATP-C-expressing Xenopus oocytes. The format is functional, cell-based, Oocyte. To be noted: xenopus laevis, probe estrone-3-sulfate.

For data set [2], the target named is T2, Solute carrier organic anion transporter family member 1B1 (Homo sapiens, UniProt Q9Y6L6).
T2 sequence (Q9Y6L6 whole entry): T1 sequence (Q9Y6L6 whole entry)
As to the kind of experiment: TP_TRANSPORTER: uptake in OATP1B1-expressing HEK293 cell. The format is functional, cell-based.

Data set [3] deals with T3, OATP1B1 (SLCO1B1) (Homo sapiens, UniProt Q9Y6L6).
T3 sequence (Q9Y6L6 whole entry): T1 sequence (Q9Y6L6 whole entry)
The data set is described as follows: TP_TRANSPORTER: inhibition of Estrone-3-sulfate uptake(Estrone-3-sulfate: 9.2nM) in Xenopus laevis oocytes. The format is functional, cell-based, Oocyte. Details: scale not given: the % may be the effect or the level left. To be noted: probe estrone-3-sulfate.

The target in data set [4] is T2, Solute carrier organic anion transporter family member 1B1. The data set is described as follows: TP_TRANSPORTER: inhibition of E1S uptake (SN38 G 10 u M) in OATP1B1-expressing HEK293 cells. To be noted: hek293, 10 µM. The format is functional, cell-based.
Data set [5] addresses T1, OATP-C (OATP1B1, SLCO1B1). As to the kind of experiment: TP_TRANSPORTER: inhibition of estrone-3-sulfate uptake (Estrone-3-sulfate: 9.2 nM) by Rosiglitazone at a concentration of 10uM in OATP-C-expressing Xenopus oocytes. The format is functional, cell-based, Oocyte. Particulars: xenopus laevis, probe estrone-3-sulfate.
Data set [6] deals with T4, OATP8 (OATP1B3, SLCO1B3) (Homo sapiens, UniProt Q9NPD5).
T4 sequence (Q9NPD5 whole entry): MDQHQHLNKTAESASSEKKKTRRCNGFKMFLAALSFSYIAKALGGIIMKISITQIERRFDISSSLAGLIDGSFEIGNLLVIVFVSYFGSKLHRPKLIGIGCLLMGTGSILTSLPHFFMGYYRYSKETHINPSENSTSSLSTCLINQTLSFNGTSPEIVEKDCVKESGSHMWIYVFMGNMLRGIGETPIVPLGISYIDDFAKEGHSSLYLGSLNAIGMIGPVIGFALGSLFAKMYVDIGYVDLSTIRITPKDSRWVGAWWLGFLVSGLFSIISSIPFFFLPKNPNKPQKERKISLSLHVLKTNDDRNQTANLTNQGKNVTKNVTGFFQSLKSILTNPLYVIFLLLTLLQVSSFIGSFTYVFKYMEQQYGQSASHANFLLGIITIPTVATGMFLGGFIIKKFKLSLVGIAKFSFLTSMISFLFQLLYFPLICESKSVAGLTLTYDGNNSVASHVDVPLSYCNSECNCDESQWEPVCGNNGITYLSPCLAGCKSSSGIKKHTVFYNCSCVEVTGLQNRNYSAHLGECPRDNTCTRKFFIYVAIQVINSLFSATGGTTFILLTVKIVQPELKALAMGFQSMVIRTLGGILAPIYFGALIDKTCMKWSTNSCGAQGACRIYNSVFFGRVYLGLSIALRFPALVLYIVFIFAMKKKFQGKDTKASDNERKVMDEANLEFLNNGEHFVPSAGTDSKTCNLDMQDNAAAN
The data set is described as follows: TP_TRANSPORTER: inhibition of estrone-3-sulfate uptake (Estrone-3-sulfate: 9.2 nM) by Pioglitazone at a concentration of 10uM in OATP8-expressing Xenopus oocytes. To be noted: xenopus laevis, Xenopus laevis oocytes expressing OATP8, probe estrone-3-sulfate. The format is functional, cell-based, Oocyte.

Data set [7] has as its target T1, OATP-C (OATP1B1, SLCO1B1). The data set is described as follows: TP_TRANSPORTER: inhibition of estrone-3-sulfate uptake (Estrone-3-sulfate: 9.2 nM) by Pioglitazone at a concentration of 10uM in OATP-C-expressing Xenopus oocytes. The format is functional, cell-based, Oocyte. Particulars: xenopus laevis, probe estrone-3-sulfate.
In data set [8] the target is T3, OATP1B1 (SLCO1B1). The data set is described as follows: TP_TRANSPORTER: inhibition of E1S uptake (irinotecan 10 u M) in OATP1B1-expressing HEK293 cells. Details: scale not given: the % may be the effect or the level left. The format is functional, cell-based. Particulars: HEK293 cells expressing OATP1B1, probe estrone-3-sulfate (E1S), read-out: Activity.
Data set [9] deals with T4, OATP8 (OATP1B3, SLCO1B3). As to the kind of experiment: TP_TRANSPORTER: inhibition of estrone-3-sulfate uptake (Estrone-3-sulfate: 9.2 nM) by Troglitazone sulfate at a concentration of 10uM in OATP8-expressing Xenopus oocytes. Particulars: xenopus laevis, Xenopus laevis oocytes expressing OATP8, probe estrone-3-sulfate. The format is functional, cell-based, Oocyte.
Data set [10] has as its target T1, OATP-C (OATP1B1, SLCO1B1). The data set is described as follows: TP_TRANSPORTER: inhibition of estrone-3-sulfate uptake (Estrone-3-sulfate: 9.2 nM) by Troglitazone sulfate at a concentration of 10uM in OATP-C-expressing Xenopus oocytes. The format is functional, cell-based, Oocyte. Particulars: xenopus laevis, probe estrone-3-sulfate.
Data set [11] deals with T2, Solute carrier organic anion transporter family member 1B1. As to the kind of experiment: TP_TRANSPORTER: cell accumulation in OATP-C-expressing Xenopus oocytes. Particulars: xenopus laevis, oocyte. The format is functional, cell-based.
Data set [12] has as its target T5, Solute carrier organic anion transporter family member 1B3 (Homo sapiens, UniProt Q9NPD5).
T5 sequence (Q9NPD5 whole entry): T4 sequence (Q9NPD5 whole entry)
The data set is described as follows: TP_TRANSPORTER: uptake of SN-38 at a concentration of 0.09uL/oocyte in Xenopus laevis oocytes. The format is functional, cell-based.

Data set [13] has as its target T2, Solute carrier organic anion transporter family member 1B1. As to the kind of experiment: TP_TRANSPORTER: uptake of SN-38 at a concentration of 0.16uL/oocyte in Xenopus laevis oocytes. The format is functional, cell-based.
Data set [14] has the same target. The data set is described as follows: TP_TRANSPORTER: uptake in OATP1B1-expressing HEK293 cells. The format is functional, cell-based.
In data set [15] the target is T6, Solute carrier organic anion transporter family member 2B1 (Homo sapiens, UniProt O94956).
T6 sequence (O94956 whole entry): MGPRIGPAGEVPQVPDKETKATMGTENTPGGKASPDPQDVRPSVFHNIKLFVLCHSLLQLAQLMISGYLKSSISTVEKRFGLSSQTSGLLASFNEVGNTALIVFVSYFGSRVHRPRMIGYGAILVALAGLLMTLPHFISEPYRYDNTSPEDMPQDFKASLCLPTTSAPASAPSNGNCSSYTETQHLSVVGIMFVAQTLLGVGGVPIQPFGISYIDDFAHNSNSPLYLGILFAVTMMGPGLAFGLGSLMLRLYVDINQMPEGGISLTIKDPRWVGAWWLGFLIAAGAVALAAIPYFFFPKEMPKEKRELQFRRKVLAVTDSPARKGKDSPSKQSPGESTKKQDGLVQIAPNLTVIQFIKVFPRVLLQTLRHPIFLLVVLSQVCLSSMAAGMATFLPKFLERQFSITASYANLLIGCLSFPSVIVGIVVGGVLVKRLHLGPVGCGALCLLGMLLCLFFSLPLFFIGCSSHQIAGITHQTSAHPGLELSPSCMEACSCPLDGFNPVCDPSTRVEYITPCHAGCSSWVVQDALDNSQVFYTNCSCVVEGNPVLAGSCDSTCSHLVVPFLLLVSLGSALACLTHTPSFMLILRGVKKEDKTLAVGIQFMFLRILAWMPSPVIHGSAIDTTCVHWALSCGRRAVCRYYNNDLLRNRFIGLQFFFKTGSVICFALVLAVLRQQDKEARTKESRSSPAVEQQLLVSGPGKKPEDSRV
As to the kind of experiment: TP_TRANSPORTER: uptake of SN-38 at a concentration of 0.10uL/oocyte in Xenopus laevis oocytes. The format is functional, cell-based.

In data set [16] the target is T2, Solute carrier organic anion transporter family member 1B1. As to the kind of experiment: TP_TRANSPORTER: inhibition of E1S uptake (SN38 10 u M) in OATP1B1-expressing HEK293 cells. The format is functional, cell-based. Details: scale not given: the % may be the effect or the level left. Particulars: hek293, 10 µM.
The target of data set [17] is T5, Solute carrier organic anion transporter family member 1B3. As to the kind of experiment: TP_TRANSPORTER: cell accumulation in OATP8-expressing Xenopus oocytes. The format is functional, cell-based. To be noted: xenopus laevis, oocyte.
In data set [18] the target is T1, OATP-C (OATP1B1, SLCO1B1). As to the kind of experiment: TP_TRANSPORTER: inhibition of estrone-3-sulfate uptake (Estrone-3-sulfate: 9.2 nM) by Troglitazone glucuronide at a concentration of 10uM in OATP-C-expressing Xenopus oocytes. To be noted: xenopus laevis, probe estrone-3-sulfate. The format is functional, cell-based, Oocyte.
The target in data set [19] is T4, OATP8 (OATP1B3, SLCO1B3). The data set is described as follows: TP_TRANSPORTER: inhibition of estrone-3-sulfate uptake (Estrone-3-sulfate: 9.2 nM) by Quinone Form at a concentration of 10uM in OATP8-expressing Xenopus oocytes. The format is functional, cell-based, Oocyte. Particulars: xenopus laevis, Xenopus laevis oocytes expressing OATP8, probe estrone-3-sulfate.

Data set [20] deals with T1, OATP-C (OATP1B1, SLCO1B1). The data set is described as follows: TP_TRANSPORTER: inhibition of estrone-3-sulfate uptake (Estrone-3-sulfate: 9.2 nM) by Quinone Form at a concentration of 10uM in OATP-C-expressing Xenopus oocytes. The format is functional, cell-based, Oocyte. Particulars: xenopus laevis, probe estrone-3-sulfate.

Drawing on ChEMBL document CHEMBL2073784, “Involvement of organic anion transporting polypeptides in the transport of troglitazone sulfate: implications for understanding troglitazone hepatotoxicity” (Drug Metab Dispos, 2004), this text covers inhibition, Activity and activity for ten compounds.

The structures appear in SMILES notation. Counter-ions that a name gives are not always drawn.

The term inhibition denotes the relative decrease from the control value, in per cent. `Cc1c(C)c2c(c(C)c1O)CCC(C)(COc1ccc(CC3SC(=O)NC3=O)cc1)O2` (stereo not given) [TROGLITAZONE] yielded an inhibition at 10 µM in [1] of 35%.
Take `CCc1c2c(nc3ccc(OC[C@@H]4O[C@H](C(=O)O)[C@@H](O)[C@H](O)[C@H]4O)cc13)-c1cc3c(c(=O)n1C2)COC(=O)[C@]3(O)CC`: the Activity entry in [2] is “is not a substrate [-]”; in [3], 45%; in data set [4], “is not an inhibitor [-]”.
For `CN(CCOc1ccc(CC2SC(=O)NC2=O)cc1)c1ccccn1` (stereo not given) [ROSIGLITAZONE], 10 µM produced 60% inhibition in [5].
For `CCc1ccc(CCOc2ccc(CC3SC(=O)NC3=O)cc2)nc1` (stereo not given) [PIOGLITAZONE], the inhibition at 10 µM in data set [6] was found to be 65%; in data set [7] it was 70%.
Regarding `CCc1c2c(nc3ccc(OC(=O)N4CCC(N5CCCCC5)CC4)cc13)-c1cc3c(c(=O)n1C2)COC(=O)[C@]3(O)CC` [IRINOTECAN], the figures for the Activity entry in data set [2] and in data set [3] were “is not a substrate [-]” and 60%, respectively. The activity at 10 µM in data set [8] is 60%.
Consider `Cc1c(C)c2c(c(C)c1OS(=O)(=O)O)CCC(C)(COc1ccc(CC3SC(=O)NC3=O)cc1)O2` (stereo not given) [TROGLITAZONE SULFATE], for which the figures for the inhibition at 10 µM in data set [9] and in data set [10] were 20% and 5%, respectively. The Activity result in data set [11] was “substrate []”.
As to `CCc1c2c(nc3ccc(O)cc13)-c1cc3c(c(=O)n1C2)COC(=O)[C@]3(O)CC` [7-ETHYL-10-HYDROXYCAMPTOTHECIN], the Activity entry is “is not a substrate [-]” in [12]; “substrate [+]” in data set [2]; 85% in [3]; “substrate [+]” in [13]; “substrate []” in data set [14]; “is not a substrate [-]” in [15]. The compound further returned an Activity in data set [16] of 50%.
Regarding `C[C@]12CC[C@@H]3c4ccc(OS(=O)(=O)O)cc4CC[C@H]3[C@@H]1CCC2=O` [ESTRONE SULFURIC ACID], the Activity entry in [17] and in data set [11] was “substrate []” in each case.
`Cc1c(C)c2c(c(C)c1O[C@@H]1O[C@H](C(=O)O)[C@@H](O)[C@H](O)[C@H]1O)CCC(C)(COc1ccc(CC3SC(=O)NC3=O)cc1)O2` (stereo not given in full) [TROGLITAZONE GLUCURONIDE] registered an inhibition at 10 µM in [18] of 30%.
As to `CC1=CC(=O)C(C)=C(CCC(C)(C)COc2ccc(CC3SC(=O)NC3=O)cc2)C1=O` (stereo not given) [QUINONE FORM], the inhibition at 10 µM in [19] was 60%; in data set [20], 20%.
